Data: patent publication US4312883A, “Furocoumarin for the photochemotherapy of psoriasis and related skin diseases” (Consiglio Nazionale delle Ricerche, priority 1979, dated 1982)
Structures can show the parent of a compound that is named as a salt. Where two headings read alike, the source gives them in different places.

Columns and labels:
skin = experiment: Relative skin phototoxicity; conditions: (psr = 100)
DNA [1] = experiment: Photobinding to DNA, rate constants of the photoreactions; assay type: biochemical; conditions: for photobinding capacity to DNA (in words): versus angelicin; for Rate constants of the photoreactions with DNA: in vitro, UV-A irradiated; for Rate constants of the photoreactions with DNA, relative: relative (ang = 100)
From the text: (b) Determined according to F. Dall'Acqua, S. Marciani, F. Zambon and G.
Rodighiero, Photochem. Photobiol., 29,489(1979).
Photobinding capacity to DNA: The introduction of one or two methyl groups in the molecule of angelicin leads to a strong increase of the photobinding to DNA; see Table II. […] Photobiol., 29, 489 (1979).

Solubility = assay type: physicochemical
DNA [2] = experiment: Capacity to form inter-strand cross-linkages in DNA; assay type: biochemical; conditions: (psr = 100)
Description: All these compounds were not suitable to photoinduce in DNA inter-strand cross-linkages. […] These tests were carried out according to the method of F. Bordin et al., Photochem. Photobiol., 29,1063 (1979).

DNA [3] = experiment: Dark complex formation (intercalation) with DNA in the ground state, binding parameters; set-up: K (association constants) of the complexes with DNA: unit not given here; conditions: for K (association constants) of the complexes with DNA / 1/n (frequency of binding sites): in vitro, ground state; for K (association constants) of the complexes with DNA: McGhee and Von Hippel method; for 1/n (frequency of binding sites): molecules bound per nucleotide; for 1/n (frequency of binding sites), relative / K (association constants), relative: relative (ang = 100)
From the text: Dark complex formation: It is known from F. Dall'Acqua, et al. Chem.-Biol. Interactions 21,103 (1978) that the intercalated complex formed by furocoumarins with DNA strongly affects the successive photoaddition increasing the rate of photobinding. […] These parameters have been determined according to the method of McChee and Von Hippel, J.Mol.Biol, 86, 469 (1974).
(a) Determined according to Mc Ghee and Von Hippel, J. Mol. Biol.,

[4] = system: RNA synthesis in Ehrlich ascites tumor cells; experiment: Inhibition of RNA synthesis on irradiation at 365 nm; assay type: cell-based; conditions: relative (ang = 100)
From the text: (§1) Photobiological activity: A significant test for assessing photobiological activity of alkylangelicins is the study of their capacity to inhibit DNA and RNA synthesis in Ehrlich ascites tumor cells. In Table III the capacity of inhibition is expressed as ID50, that is the irradiation does, in terms of quanta at 365 nm, necessary to inhibit in these cells the 50% of the DNA and RNA synthesis in the presence of a constant amount of alkylangelicin. […] Moreover, in general it can be observed that in this simple biological system a close correlation exists between photobiological activity and the capacity to induce photochemical lesions in DNA, that is photoreactivity.

[5] = system: DNA synthesis in Ehrlich ascites tumor cells; experiment: Inhibition of DNA synthesis (and DNA and RNA synthesis) on irradiation at 365 nm; assay type: cell-based; conditions: for inhibition of DNA synthesis, relative: relative (ang = 100)
From the text: as §1

epidermal DNA synthesis [6] = experiment: Inhibition of epidermal DNA synthesis in the mouse in vivo after topical application and UV-A irradiation; conditions: light or radiation study, 0.01% methanol solutions, UV-A 9 J/cm^2, read-out: Percent inhibition ± standard error of epidermal DNA synthesis
Description: DNA samples were dissolved in water and their specific radioactivity determined.
Each drug substance was studied using at least six mice.

psoriasis = experiment: Topical photochemotherapy of psoriasis in patients; assay type: in vivo, human; conditions: topical 0.1% w/v + UV-A; for No. of patients with Excellent result: Excellent = 90% clearance; for No. of patients with Fair result: Fair = 50-70%; for No. of patients with Good result: Good = 70-90%; for No. of patients with Poor result: Poor 40%
From the text: Clinical data: The effectiveness of certain representative alkylangelicins according to the present invention, specifically 5-methylangelicin, 4,5'-dimethylangelicin, 4'-hydroxymethyl-4,5'-dimethylangelicin, 4'-hydroxymethyl-4,5'-dimethylangelicin and 4,5-dimethylangelicin, has been tested by measuring their capacity to resolve psoriasis in various patients. For a direct comparison the efficacy of the parent unsubstituted angelicin and that of three very effective linear furocoumarins, that is 8-methoxypsoralen (8-MOP), 5-methoxypsoralen (5-MOP), and 4,5',8-trimethylpsoralen (TMP) were also tested.
In each treatment four areas of the affected skin were used;
(a) In the first area an alcohol lotion, containing 10% glycerine, of the tested compound (0.1% w/v) was applied until a concentration of […] was reached then left to evaporate by the heat of the body. After half an hour the area was irradiated with high intensity UV-A emitting low pressure mercury fluorescent lamps with a wavelength of 320-400 nm. The irradiation doses were selected in the range of 4.5-13 J/cm^2 for each application as a function of the sensitivity of the skin of the patients; when the skin sensitivity was higher, the light doses were lower and vice versa.
(b) A second area was treated with an alcohol solution of the drug as in (a) but it was covered and maintained in the dark.
(c) A third area, where the drug was not applied, was irradiated as in (a) but in general with higher UV-A doses.
(d) A fourth area was not treated at all, neither with the drug, not with UV-A.
The treatment with the alkylangenlicins referred to above was repeated 5 time a week for two or more weeks; the total number of treatments was between 8 and 20 per subject. In some cases, as for instance with 5-methylangelicin, a good clearing of psoriasis was observed after 8 treatments.
In order to avoid induction of photosensitization processes such as redness and erythema in the reference tests made with the linear furocoumarins 8-MOP, 5-MOP, TMP, lower light doses were used than in the case of alkylangelicins, the treatments were repeated at a frequency of no more than three times a week.

epidermal DNA synthesis [7] = experiment: Inhibition of the synthesis of epidermal DNA of the mouse in vivo after oral administration and UV-A irradiation; conditions: oral 0.25 g/Kg, UV-A 9 J/cm^2 after two hours
From the text: Considering that the topical skin tests carried out on mice to evaluate the effectiveness of these substances has yielded data which correlate well with the clinical data, such a test conveniently modified has been adopted to evaluate the effectiveness of the alkylangelicins after oral administration followed by UV-A irradiation.
In this connection experiments have been conducted using mice 20±2 g in weight, that were starved for three hours before oral administration of the alkylangelicins. Groups of 5 mice were fed a suspension of 0.5% methylcellulose in water containing the alkylangelicins of the invention at a dosage of 0.25 g/Kg. The animals were kept in the dark for two hours, that is for the time necessary for absorption, systemic distribution and localization of the drug at the level of the skin. The animals were then irradiated with UV-A light, 9 J/cm^2. Later the animals were sacrificed and the inhibition of the epidermal DNA synthesis was tested; the results obtained are reported in Table VI. The skin on the back, protected from light by a dark paper, was assumed as a control. As a reference 8-MOP, used under the same experimental conditions, was also tested. The significant activity of the alkylangelicins according to the present invention, higher than that of 8-MOP, in inhibiting the epidermal DNA synthesis in mice upon oral administration allows one to consider these compounds as also being effective for oral administration to humans for photochemotherapy of psoriasis and of other skin diseases that are characterized by cellular hyperproliferation.

Acute toxicity in mice = conditions: mouse, in vivo, po
[8] = cited from earlier work
[9] = Table I; cited from earlier work
DNA synthesis = conditions: Table I; cited from earlier work
melamin pigmentation = conditions: Table I; cited from earlier work
DNA [10] = conditions: cited from earlier work; for DNA intercalation property / Interstrand cross-linking induction in DNA / Monoadduct forming property: Table I; for Photobinding capacity to DNA: known furocoumarins
[11] = known furocoumarins, Table I; cited from earlier work
DNA [12] = conditions: (psr = 100); footnote (c), reference compounds; cited from earlier work

Cc1oc2ccc3c(C)cc(=O)oc3c2c1COCCN(C)C [4,5'-dimethyl-4'-N,N-dimethylaminoethoxymethylangelicin]
Relative skin phototoxicity (skin): 0 | photobinding capacity to DNA (in words) (DNA [1]): strongly increased photobinding capacity | water solubility (Solubility): water soluble | capacity to form interstrand cross-linkages (DNA [2]): 0 | K (association constants) of the complexes with DNA (DNA [3]): > 10000 | 1/n (frequency of binding sites) (DNA [3]): > 0.15 | increase of K (affinity towards DNA) (DNA [3]; on introduction of a cationic moiety in addition to the two methyl groups): more than 20 times | 1/n (frequency of binding sites), relative (DNA [3]): > 230 | K (association constants), relative (DNA [3]): > 1700 | inhibition of RNA synthesis, relative [4]: 162 | inhibition of DNA synthesis, relative [5]: 290 | inhibition in vivo at 0.01 % (epidermal DNA synthesis [6]): 29.4 ± 16.2%

Cc1oc2ccc3c(C)cc(=O)oc3c2c1CN [4,5'-dimethyl-4'-aminomethylangelicin hydrochloride]
Relative skin phototoxicity (skin): 0 | Rate constants of the photoreactions with DNA (DNA [1]): 0.8 K × 10^-2 × min^-1 | Rate constants of the photoreactions with DNA, relative (DNA [1]): 72 | photobinding capacity to DNA (in words) (DNA [1]): lower than that of angelicin | water solubility (Solubility): water soluble | capacity to form interstrand cross-linkages (DNA [2]): 0 | K (association constants) of the complexes with DNA (DNA [3]): 16300 | 1/n (frequency of binding sites) (DNA [3]): 0.255 | 1/n (frequency of binding sites), relative (DNA [3]): 404 | K (association constants), relative (DNA [3]): 2910 | inhibition of RNA synthesis, relative [4]: 23.3 | capacity to inhibit the DNA and RNA synthesis (in words) ([5]; Ehrlich ascites tumor cells, versus angelicin): lower than that of angelicin | inhibition of DNA synthesis, relative [5]: 25

Cc1cc2c(ccc3c(C)cc(=O)oc32)o1 [4,5'-dimethylangelicin]
No. of patients with Excellent result (psoriasis): 0 patients | No. of patients with Fair result (psoriasis): 3 patients | No. of patients with Good result (psoriasis): 1 patients | No. of patients with Poor result (psoriasis): 0 patients | Relative skin phototoxicity (skin): 0 | Rate constants of the photoreactions with DNA (DNA [1]): 4.0 K × 10^-2 × min^-1 | Rate constants of the photoreactions with DNA, relative (DNA [1]): 363 | Percent inhibition ± standard error of epidermal DNA synthesis (epidermal DNA synthesis [7]): 51.0 ± 8.0% | capacity to form interstrand cross-linkages (DNA [2]): 0 | K (association constants) of the complexes with DNA (DNA [3]): 1410 | 1/n (frequency of binding sites) (DNA [3]): 0.094 | 1/n (frequency of binding sites), relative (DNA [3]): 149 | K (association constants), relative (DNA [3]): 252 | inhibition of RNA synthesis, relative [4]: 172 | LD50 (Acute toxicity in mice): 2500 mg/kg | inhibition of DNA synthesis, relative [5]: 230 | inhibition in vivo at 0.01 % (epidermal DNA synthesis [6]): 37.6 ± 4.9%

COc1c2ccoc2cc2oc(=O)ccc12 [5-MOP, 5-methoxypsoralen]
No. of patients with Excellent result (psoriasis): 0 patients | No. of patients with Fair result (psoriasis): 1 patients | No. of patients with Good result (psoriasis): 4 patients | No. of patients with Poor result (psoriasis): 4 patients | Carcinogenicity (oral) [8]: weak | Carcinogenicity (topical) [8]: strong | Mutagenicity [9]: known, strong | DNA synthesis inhibiting property (DNA synthesis): known, strong | Stimulation of melamin pigmentation (melamin pigmentation): strong, well known | DNA intercalation property (DNA [10]): strong | Interstrand cross-linking induction in DNA (DNA [10]): strong, well known | Monoadduct forming property (DNA [10]): known, strong | Photobinding capacity to DNA (DNA [10]): known, strong | Photosensitizing activity [11]: known, strong

Cc1cc2cc3c(C)cc(=O)oc3c(C)c2o1 [TMP, 4,5',8-trimethylpsoralen]
No. of patients with Excellent result (psoriasis): 2 patients | No. of patients with Fair result (psoriasis): 2 patients | No. of patients with Good result (psoriasis): 2 patients | No. of patients with Poor result (psoriasis): 2 patients | Carcinogenicity (oral) [8]: weak | Carcinogenicity (topical) [8]: strong | Mutagenicity [9]: known, strong | DNA synthesis inhibiting property (DNA synthesis): known, strong | Stimulation of melamin pigmentation (melamin pigmentation): strong, well known | DNA intercalation property (DNA [10]): strong | Interstrand cross-linking induction in DNA (DNA [10]): strong, well known | Monoadduct forming property (DNA [10]): known, strong | Photobinding capacity to DNA (DNA [10]): known, strong | Photosensitizing activity [11]: known, strong

O=c1ccc2cc3ccoc3cc2o1 [psoralen, reference compound]
Relative skin phototoxicity (skin): 100 | Rate constants of the photoreactions with DNA (DNA [1]): 3.8 K × 10^-2 × min^-1 | Rate constants of the photoreactions with DNA, relative (DNA [1]): 345 | K (association constants) of the complexes with DNA (DNA [3]): 400 | 1/n (frequency of binding sites) (DNA [3]): 0.108 | 1/n (frequency of binding sites), relative (DNA [3]): 171 | K (association constants), relative (DNA [3]): 71.4 | inhibition of RNA synthesis, relative [4]: 166 | capacity to form interstrand cross-linkages (DNA [12]): 100 | inhibition of DNA synthesis, relative [5]: 275 | inhibition in vivo at 0.01 % (epidermal DNA synthesis [6]): 47.8 ± 7.9%
